Data on eleven molecules can be found in PubChem BioAssay (NCI).

Test systems include ACHN renal; HCC-2998 colon; HCT-15 colon; M14 melanoma; OVCAR-3 ovarian; OVCAR-8 ovarian; SK-MEL-28 melanoma; TK-10 renal.
Holding throughout (assay): NCI tumour cell line growth inhibition, 48 h

SMILES strings stand for the structures.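 96-well plates; 48 h exposure; 5 concentrations. Endpoints by linear interpolation between flanking doses. Not reached: highest tested concentration assigned. GI50: concentration for 50% inhibition of growth. TGI: concentration producing complete growth inhibition.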

Regarding `CC[C@H](C)[C@H](NC(=O)C12C3C4C1C1C2C3C41NC)C(=O)N(C)[C@H](C[C@@H](OC(C)=O)c1nc(C(=O)N[C@@H](Cc2ccccc2)C[C@H](C)C(=O)OC)cs1)C(C)C` (some centres undefined), the GI50 is 1.21 µM with ACHN renal; 0.369 µM in the assay on HCC-2998 colon; 1.27 µM in the assay on HCT-15 colon; 0.42 µM in the assay on M14 melanoma; 0.0872 µM in the assay with OVCAR-3 ovarian; 0.717 µM with OVCAR-8 ovarian. Further, the values for the GI50 in the assay with SK-MEL-28 melanoma and with TK-10 renal were 0.714 µM and above 4 µM, respectively. Also, the TGI was above 14.3 µM in the assay with ACHN renal; above 14.3 µM in the assay on HCC-2998 colon; above 14.3 µM in the assay with HCT-15 colon; 5.54 µM in the assay with M14 melanoma; 1.02 µM in the assay with OVCAR-3 ovarian; above 14.3 µM with OVCAR-8 ovarian. Besides, the TGI with SK-MEL-28 melanoma and in the assay on TK-10 renal was above 14.3 µM each time.

Take `CC1(C)CC(O)CC(C)(C)N1O`: the TGI in the assay with ACHN renal, in the assay with HCC-2998 colon, with HCT-15 colon, with M14 melanoma, in the assay on OVCAR-3 ovarian and in the assay with OVCAR-8 ovarian was above 100 µM throughout. Also, the TGI in the assay on SK-MEL-28 melanoma and in the assay with TK-10 renal was above 100 µM each time.

With `Cn1cc(-c2cc(-c3cn(C)c4ccccc34)[nH]n2)c2ccccc21`, the GI50 in the assay on ACHN renal is 7.68 µM; in the assay with HCC-2998 colon, 4.74 µM; in the assay on HCT-15 colon it was 8.68 µM; in the assay on M14 melanoma, above 100 µM; in the assay with OVCAR-3 ovarian it was 28.4 µM; in the assay on OVCAR-8 ovarian, 28.8 µM. Besides, the figures for the GI50 in the assay with SK-MEL-28 melanoma and in the assay on TK-10 renal were above 100 µM and 37.4 µM, respectively. Moreover, the TGI in the assay with ACHN renal, with HCC-2998 colon, in the assay on HCT-15 colon, in the assay on M14 melanoma, in the assay on OVCAR-3 ovarian and in the assay with OVCAR-8 ovarian was above 100 µM each time. Moreover, the TGI with SK-MEL-28 melanoma and in the assay on TK-10 renal was above 100 µM in each case.

For `O=c1[nH]c2cc(Cl)ccc2nc1/C(=N\Nc1ccccc1)C(O)c1ccc2c(c1)OCO2` (centres undefined), the TGI with ACHN renal, in the assay on HCC-2998 colon, with HCT-15 colon, in the assay with M14 melanoma, in the assay with OVCAR-3 ovarian and with OVCAR-8 ovarian was above 100 µM in each case. The TGI in the assay with SK-MEL-28 melanoma and in the assay on TK-10 renal was above 100 µM each time.

As for `COc1cccc(/C=C2\N=C(c3ccccc3)OC2=O)c1`, the TGI with ACHN renal, in the assay on HCC-2998 colon, with HCT-15 colon, in the assay with M14 melanoma, with OVCAR-3 ovarian and in the assay on OVCAR-8 ovarian was above 100 µM each time. In addition, the TGI in the assay with SK-MEL-28 melanoma and with TK-10 renal was above 100 µM throughout.

As for `CN1C2C=CC(=O)C1C1C(=O)N(c3ccccc3)C(=O)C12` (centres undefined), the GI50 with ACHN renal is 6.93 µM; with HCC-2998 colon, 13.3 µM; in the assay on HCT-15 colon it was 5.52 µM; with M14 melanoma, 9.8 µM; in the assay with OVCAR-3 ovarian it was 2.35 µM; with OVCAR-8 ovarian it was 4.22 µM. For the same molecule, the GI50 with SK-MEL-28 melanoma was 3.62 µM; in the assay on TK-10 renal it was 4.55 µM. The TGI in the assay with ACHN renal was found to be 20.9 µM; in the assay on HCC-2998 colon, 29.3 µM; with HCT-15 colon it was 20.3 µM; in the assay with M14 melanoma, 24.6 µM; in the assay on OVCAR-3 ovarian it was 6.73 µM; in the assay on OVCAR-8 ovarian it was 20.3 µM. Also, the figures for the TGI in the assay on SK-MEL-28 melanoma and in the assay on TK-10 renal were 16.7 µM and 18.9 µM, respectively.

On to `COc1ccc(-c2nsc3c2NC(=O)CC3c2ccsc2)cc1` (centres undefined), for which the GI50 with ACHN renal is 1.06 µM; in the assay on HCC-2998 colon, 0.528 µM; in the assay with HCT-15 colon, 0.101 µM; with M14 melanoma it was 0.167 µM; with OVCAR-3 ovarian, 0.211 µM; in the assay on OVCAR-8 ovarian, 0.409 µM. In addition, the GI50 with SK-MEL-28 melanoma was 4.26 µM; with TK-10 renal, 13.8 µM. In addition, the TGI is above 100 µM in the assay on ACHN renal; above 22.7 µM in the assay with HCC-2998 colon; above 100 µM with HCT-15 colon; 23.6 µM with M14 melanoma; 0.611 µM in the assay with OVCAR-3 ovarian; above 25.2 µM in the assay on OVCAR-8 ovarian. The TGI in the assay on SK-MEL-28 melanoma and in the assay on TK-10 renal was above 100 µM throughout.

For `Clc1ccc(C=Nc2ccc(-c3nc4ccccc4[nH]3)cc2)cc1`, the GI50 with ACHN renal, with HCC-2998 colon, in the assay on HCT-15 colon, in the assay with M14 melanoma, in the assay with OVCAR-3 ovarian and with OVCAR-8 ovarian was above 100 µM throughout. Besides, the GI50 in the assay with SK-MEL-28 melanoma and with TK-10 renal was above 100 µM in each case. Also, the TGI in the assay with ACHN renal, with HCC-2998 colon, in the assay with HCT-15 colon, in the assay on M14 melanoma, in the assay with OVCAR-3 ovarian and in the assay with OVCAR-8 ovarian was above 100 µM each time. Further, the TGI in the assay on SK-MEL-28 melanoma and in the assay with TK-10 renal was above 100 µM throughout.

As to `Cc1nc2c(C)ccc([N+](=O)[O-])c2c(NCCCN(C)C)c1C`, the TGI was above 100 µM in the assay with ACHN renal; above 55.4 µM in the assay on HCC-2998 colon; above 54.2 µM in the assay on HCT-15 colon; 37.6 µM in the assay on M14 melanoma; above 100 µM in the assay on OVCAR-3 ovarian; above 71.6 µM in the assay with OVCAR-8 ovarian. Further, the TGI is above 54.8 µM with SK-MEL-28 melanoma and above 55.7 µM with TK-10 renal.

Consider `CCN(CC)CCOC(COc1cc(C)cc(C)c1)COc1cc(C)cc(C)c1`, for which the GI50 with ACHN renal was 3.6 µM; with HCC-2998 colon it was 1.72 µM; with HCT-15 colon, 3.01 µM; with M14 melanoma, 1.35 µM; in the assay on OVCAR-3 ovarian it was 3.46 µM; in the assay on OVCAR-8 ovarian, 7.23 µM. Also, the GI50 was 1.84 µM in the assay with SK-MEL-28 melanoma and 3.45 µM in the assay on TK-10 renal. The TGI in the assay with ACHN renal is 13.8 µM; in the assay on HCC-2998 colon, 3.5 µM; in the assay with HCT-15 colon it was 12.4 µM; with M14 melanoma it was 3.06 µM; in the assay on OVCAR-3 ovarian it was 13 µM; with OVCAR-8 ovarian, 22.2 µM. Besides, the TGI in the assay on SK-MEL-28 melanoma was 3.77 µM; with TK-10 renal, 14.5 µM.

With `C=CCC(N[C@@H](CO)c1ccccc1)c1ccc2ccccc2n1` (some centres undefined), the GI50 was above 100 µM in the assay with ACHN renal; above 100 µM with HCC-2998 colon; above 100 µM with HCT-15 colon; above 100 µM in the assay with M14 melanoma; 57.4 µM in the assay on OVCAR-3 ovarian; above 100 µM in the assay on OVCAR-8 ovarian. Further, the GI50 in the assay on SK-MEL-28 melanoma and in the assay with TK-10 renal was above 100 µM in each case. Moreover, the TGI in the assay with ACHN renal, in the assay with HCC-2998 colon, with HCT-15 colon, in the assay on M14 melanoma, in the assay with OVCAR-3 ovarian and in the assay with OVCAR-8 ovarian was above 100 µM in each case. Moreover, the TGI in the assay with SK-MEL-28 melanoma and in the assay on TK-10 renal was above 100 µM throughout.
